# Values joined by “and” are separate entries in the source; they are usually repeats but may differ in a detail not shown here. Identical values can stand only once. Like-named read-outs stand apart in the source and are kept apart here. Marks after values point to notes of the source that are not given here.
# Assays:
# [1] = Drug concentration in plasma and brain (HPLC) in Mdr1ab(−/−) mice; type: in vivo, mouse; conditions: 24 h post-treatment; for Brain concentration at LD50: determined graphically from Figure 3A; for Brain-to-plasma ratio (slope of brain vs plasma concentration): increasing doses
# [2] = Drug concentration in plasma and brain (HPLC) in wild-type mice; type: in vivo, mouse; conditions: 24 h post-treatment; for Brain concentration at LD50: determined graphically from Figure 3B; for Brain-to-plasma ratio (slope of brain vs plasma concentration): increasing doses
# Procedure: Mice were anesthetized 2 h or 24 h after administration with isoflurane and heparinized blood samples were collected from the orbital sinus vein. Immediately thereafter, mice were sacrificed by cervical dislocation and brains were rapidly removed. Blood samples were centrifuged at 1500 g for 10 min at 4°C and the plasma fraction was collected and stored at −20°C until analysis. The brains were washed in saline solution and frozen at −20°C until analysis.
# ML concentrations were determined in plasma and brain by high performance liquid chromatography (HPLC) with fluorescence detection according to previously described and validated methods, [25]. In brief, plasma and tissues were homogenised in acetonitrile (1∶1 v/v or 1∶2 v/w, respectively). Samples were centrifuged at 2000 g and the supernatant applied to a Supelco C18 cartridge (Supelco Inc., Bellefonte, PA, USA) by using automated solid phase extraction (SPE). […] The eluate was evaporated and the dry extract was processed to obtain a fluorophore derivative by dissolving it in 1N-methylimidazole and trifluoroacetic anhydride solutions. Samples were injected into the HPLC system (PU980 pump, Jasko, Tokyo, Japan; 360 automatic injector, Kontron, Paris, France; RF-551 fluorescence detector, Shimadzu, Kyoto, Japan). For IVM and MOX a Supelcosil LC18 column (250×4.6 mm, 5 µm, Supelco, Bellefonte, PA, USA) was used with acetic acid (0.2% in water)∶methanol∶acetonitrile (4∶40∶56, v/v/v) as mobile phase.
# [3] = no reference given; cited from earlier work
# humans = test system: humans; design: method as in clinicaltrials.gov NCT00856362, NCT00300768, NCT00790998; conditions: approximately 1,700 people; ref clinicaltrials.gov NCT00856362, NCT00300768, NCT00790998; cited from earlier work
# P-gp = test system: P-gp; design: method as in PMID 17134887; conditions: cited from earlier work
# [4] = target: T1, rat α1β2γ2 GABA(A) receptor (Rattus norvegicus, UniProt P18508+P62813+P63138); assay: Two-electrode voltage-clamp of GABA(A) receptor expressed in Xenopus laevis oocytes; type: cell-based
# T1 construct: expressed in transfected cells; host or cells: Xenopus laevis oocytes injected with cRNA (constructs a gift from Dr Erwin Sigel)
# T1 sequence (P62813 28-455): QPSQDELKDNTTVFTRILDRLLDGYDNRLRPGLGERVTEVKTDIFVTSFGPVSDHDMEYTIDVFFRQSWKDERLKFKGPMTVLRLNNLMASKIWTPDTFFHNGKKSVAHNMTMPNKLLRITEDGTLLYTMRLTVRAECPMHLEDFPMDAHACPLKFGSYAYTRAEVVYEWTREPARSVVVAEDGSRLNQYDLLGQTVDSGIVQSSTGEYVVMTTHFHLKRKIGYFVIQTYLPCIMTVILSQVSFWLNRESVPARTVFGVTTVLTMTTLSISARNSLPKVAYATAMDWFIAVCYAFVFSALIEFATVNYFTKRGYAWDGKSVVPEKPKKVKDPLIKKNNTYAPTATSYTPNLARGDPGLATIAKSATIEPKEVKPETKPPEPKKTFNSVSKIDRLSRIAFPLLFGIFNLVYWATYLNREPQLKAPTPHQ
# T1 sequence (P63138 25-474 limits assumed): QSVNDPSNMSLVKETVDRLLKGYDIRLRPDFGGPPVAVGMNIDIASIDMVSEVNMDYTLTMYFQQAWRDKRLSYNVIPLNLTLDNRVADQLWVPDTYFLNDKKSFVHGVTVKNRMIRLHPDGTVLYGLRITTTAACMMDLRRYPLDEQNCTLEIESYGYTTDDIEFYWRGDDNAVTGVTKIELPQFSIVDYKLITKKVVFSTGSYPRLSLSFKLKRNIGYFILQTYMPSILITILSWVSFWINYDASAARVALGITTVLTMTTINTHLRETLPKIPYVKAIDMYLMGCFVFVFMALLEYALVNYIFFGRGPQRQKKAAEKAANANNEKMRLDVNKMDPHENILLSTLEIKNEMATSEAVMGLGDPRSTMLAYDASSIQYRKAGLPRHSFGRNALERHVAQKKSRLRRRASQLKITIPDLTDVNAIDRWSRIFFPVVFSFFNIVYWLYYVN
# T1 sequence (P18508 39-466): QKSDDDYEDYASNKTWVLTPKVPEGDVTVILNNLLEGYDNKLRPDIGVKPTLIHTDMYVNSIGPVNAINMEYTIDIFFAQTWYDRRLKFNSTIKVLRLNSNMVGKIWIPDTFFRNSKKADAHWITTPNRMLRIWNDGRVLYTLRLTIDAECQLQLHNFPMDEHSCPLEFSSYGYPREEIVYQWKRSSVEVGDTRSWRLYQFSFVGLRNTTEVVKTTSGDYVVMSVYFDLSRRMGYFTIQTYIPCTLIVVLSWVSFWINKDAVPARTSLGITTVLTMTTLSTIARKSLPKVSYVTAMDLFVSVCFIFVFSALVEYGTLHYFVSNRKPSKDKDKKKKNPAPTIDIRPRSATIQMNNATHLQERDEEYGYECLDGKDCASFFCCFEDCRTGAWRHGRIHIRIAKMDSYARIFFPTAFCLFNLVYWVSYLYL
# Procedure: Oocytes from X. laevis, injected with foreign cDNA of the receptor of choice, are a commonly used tool for studying the activity of plasma membrane receptors. […] Isolation of oocytes from the frogs, defolliculation, culturing of the oocytes and injection of cRNA were performed as described previously. Oocytes were injected with 46 nl of RNA solution, with RNA coding for α1, β2 and γ2 subunits at a ratio of 10∶10∶50 nM [30]. The injected oocytes were incubated in modified Barth's solution [90 mM NaCl, 3 mM KCl, 0.82 mM MgSO4, 0.41 mM CaCl2, 0.34 mM Ca(NO3)2, 100 U/ml penicillin, 100 µg/ml streptomycin and 100 µg/ml kanamycin, 5 mM HEPES pH 7.6] at 18°C for approximately 36 h before the measurements to ensure the expression of a functional receptor.
# Electrophysiological experiments were performed by the two-electrode voltage-clamp method. Measurements were done in ND96 medium containing 96 mM NaCl, 2 mM KCl, 1 mM MgCl2, 1.8 mM CaCl2 and 5 mM HEPES, pH 7.5, at a holding potential of −80 mV. Currents were measured using a custom-made two-electrode voltage clamp amplifier in combination with an XY recorder (90% response time, 0.1 s). The intracellular electrodes were filled with 3 M KCl (resistance of 0.5–1.5 MΩ). […] The perfusion solution (6 ml/min) was applied through a glass capillary with an inner diameter of 1.35 mm. […] The modulatory compounds (IVM and MOX) were first dissolved in DMSO at 20 mM and then diluted in ND96 to the final concentration.
# Concentration ranges used were: IVM: 0.5 nM–10 µM; MOX: 1 nM–5 µM.
# A washout period of 5 min between each agonist application was introduced, allowing receptors to fully recover from desensitization. The perfusion system was cleaned, after application of MLs, between each experiment by washing with 10% DMSO in ND96 to avoid contamination. Three or four different batches of oocytes were used to collect data for each analysis.
# All experiments were conducted at least in triplicate. Differences in ML tissue concentrations were analyzed by one-way analysis of variance (ANOVA) with a Tukey post-test and are expressed as mean ± standard deviation (S.D.). […] Half-maximal concentrations (EC50), slope factors (Hill coefficients, nH) and maximal potentiation values for ML-induced activation of current were obtained using the Hill equation. Statistical analysis was performed using unpaired t-tests with Welch's correction to allow for differences in variances (GraphPad Instat, San Diego, CA, USA). Differences were considered statistically significant when p<0.05.
# [5] = Acute toxicity (14-day survival, LD50) after subcutaneous administration; conditions: mouse, in vivo, sc, Mdr1ab(−/−) mice, survival over 14 days, determined graphically
# Procedure: (§1) For acute toxicity experiments, Mdr1ab(−/−) mice (2–8 per dose rate) were injected subcutaneously with drug solutions at dose rates ranging from 0.1–1.75 mg/kg bw (0.11–2.0 µmol/kg bw) for IVM and 0.2–8.2 mg/kg bw (0.31–12.9 µmol/kg bw) for MOX. […] Mice were euthanized when severe tremors or ataxia were noted.
# wild-type mice = conditions: cited from earlier work
# Mdr1ab(−/−) mice = assay: Neurological symptoms after subcutaneous administration; type: in vivo, mouse
# Procedure: as §1
# P-gp-deficient dogs = conditions: cited from earlier work
# [6] = potentiation of current evoked by 2 µM GABA (EC10)
smiles,measurement,setting,value
CO/N=C1\C[C@]2(C[C@@H]3C[C@@H](C/C=C(\C)C[C@@H](C)/C=C/C=C4\CO[C@@H]5[C@H](O)C(C)=C[C@@H](C(=O)O3)[C@]45O)O2)O[C@H](/C(C)=C/C(C)C)[C@H]1C [Moxidectin],Brain concentration at LD50,[1],830 ^c pmol/g
same,Brain concentration at LD50,[1]; listed as MOX,830 pmol/g
same,Brain-to-plasma ratio (slope of brain vs plasma concentration),[1],2.6 (R^2 = 0.936) ^e ml/g
same,Brain-to-plasma ratio (slope of brain vs plasma concentration),[1]; listed as MOX,2.6 mL/g
same,Brain concentration at LD50,[2],740–1380 ^d pmol/g
same,Brain concentration at LD50,[2]; listed as MOX,740 to 1380 pmol/g
same,Brain-to-plasma ratio (slope of brain vs plasma concentration),[2],0.09 (R^2 = 0.984) ^e ml/g
same,Brain-to-plasma ratio (slope of brain vs plasma concentration),[2]; listed as MOX,0.09 mL/g
same,logP,[3],6
same,Serious adverse events,humans,without evidence of any serious adverse events
same,"Effectiveness in inhibiting transport activity by P-gp, fold less than IVM",P-gp,10 fold
same,EC50,[4],0.0118 ± 0.0092 µM
same,Concentration to reach Emax,[4]; [6],0.66 ^c µM
same,Hill slope,[4]; [6],0.34±0.56
same,Hill slope,"[4]; potentiation of current evoked by 2 µM GABA (EC10), listed as MOX",0.34±0.56 and 0.34
same,Emax,[4]; read-out: Emax (maximum potentiation relative to GABA alone),257 ± 40.6%
same,LD50 at 14 days,[5],1.47 mg/kg and 2.3 µmol/kg
same,LD50,wild-type mice,70–131 ^b µmol/kg
same,LD50,"wild-type mice; oral administration, ref 20 (IVM), 21 (MOX)",86 mg/kg
same,Toxicity,Mdr1ab(−/−) mice; 0.46 µmol/kg SC (same dose rate as IVM),did not show any toxicity
same,Neurological symptoms observed,"Mdr1ab(−/−) mice; 2 µmol/kg SC, 1 h post-treatment",Visually normal
same,Neurological symptoms observed,"Mdr1ab(−/−) mice; 2 µmol/kg SC, 2 h post-treatment (ditto marks to 4 h; transient), listed as MOX",rapid breathing was transiently observed
same,Neurological symptoms observed,"Mdr1ab(−/−) mice; 2 µmol/kg SC, 5 h post-treatment (ditto marks to 14 d)",Visually normal
same,Neurological symptoms observed,"Mdr1ab(−/−) mice; 2.6 µmol/kg SC, 1 h post-treatment (ditto marks to 3 h)",Visually normal
same,Neurological symptoms observed,"Mdr1ab(−/−) mice; 2.6 µmol/kg SC, 4 h post-treatment (ditto marks to 8 h)",Sleepiness
same,Neurological symptoms observed,"Mdr1ab(−/−) mice; 2.6 µmol/kg SC, 12 h post-treatment, mice euthanized",Ataxia ^c/Tremor ^d ^†
same,Neurological symptoms observed,"Mdr1ab(−/−) mice; 4 µmol/kg SC, 1 h post-treatment",Balance problems
same,Neurological symptoms observed,"Mdr1ab(−/−) mice; 4 µmol/kg SC, 2 h post-treatment (ditto marks to 4 h)",Sleepiness
same,Neurological symptoms observed,"Mdr1ab(−/−) mice; 4 µmol/kg SC, 5 h post-treatment, mice euthanized",Ataxia ^c/Coma ^†
same,"Start of neurotoxic signs (lethargy, tremors and/or ataxia)","Mdr1ab(−/−) mice; dose rates close to the respective LD50 (0.46 IVM, 2.3 MOX µmol/kg)",4 h
same,Dose safely used,"P-gp-deficient dogs; P-gp-deficient Collie dogs, spot-on application",up to 32.5 mg/kg
same,Signs of toxicosis,"P-gp-deficient dogs; P-gp-deficient dogs sensitive to IVM, 100 µg/kg daily for 7 days",did not produce signs of toxicosis
same,Toxicological signs,"P-gp-deficient dogs; dogs sensitive to 120 µg/kg oral IVM, similar molar dose rate, oral",did not produce any toxicological signs
